Reference: patent US20210130339A1, “COMPOUNDS” (GLAXOSMITHKLINE INTELLECTUAL PROPERTY DEVELOPMENT LIMITED, priority 2017, published 2021)
Where “and” joins values, the source holds several entries; their conditions need not be identical. Equal values may be shown once.

target: T1, recombinant full length LRRK2 (Homo sapiens, UniProt Q5S007); test: Recombinant cellular LRRK2 AlphaScreen assay; format: cell-based; conditions: LRRK2 Ser935 phosphorylation, SH-SY5Y cells over-expressing recombinant full length LRRK2; read-out: pIC50 in the recombinant cellular LRRK2 AlphaScreen assay (converted)
T1 construct: A BacMam virus expressing full length recombinant LRRK2 was purchased from Invitrogen; host or cells: SH-SY5Y human neuroblastoma cells transduced with BacMam LRRK2 virus (MOI 50)
T1 sequence (Q5S007 whole entry): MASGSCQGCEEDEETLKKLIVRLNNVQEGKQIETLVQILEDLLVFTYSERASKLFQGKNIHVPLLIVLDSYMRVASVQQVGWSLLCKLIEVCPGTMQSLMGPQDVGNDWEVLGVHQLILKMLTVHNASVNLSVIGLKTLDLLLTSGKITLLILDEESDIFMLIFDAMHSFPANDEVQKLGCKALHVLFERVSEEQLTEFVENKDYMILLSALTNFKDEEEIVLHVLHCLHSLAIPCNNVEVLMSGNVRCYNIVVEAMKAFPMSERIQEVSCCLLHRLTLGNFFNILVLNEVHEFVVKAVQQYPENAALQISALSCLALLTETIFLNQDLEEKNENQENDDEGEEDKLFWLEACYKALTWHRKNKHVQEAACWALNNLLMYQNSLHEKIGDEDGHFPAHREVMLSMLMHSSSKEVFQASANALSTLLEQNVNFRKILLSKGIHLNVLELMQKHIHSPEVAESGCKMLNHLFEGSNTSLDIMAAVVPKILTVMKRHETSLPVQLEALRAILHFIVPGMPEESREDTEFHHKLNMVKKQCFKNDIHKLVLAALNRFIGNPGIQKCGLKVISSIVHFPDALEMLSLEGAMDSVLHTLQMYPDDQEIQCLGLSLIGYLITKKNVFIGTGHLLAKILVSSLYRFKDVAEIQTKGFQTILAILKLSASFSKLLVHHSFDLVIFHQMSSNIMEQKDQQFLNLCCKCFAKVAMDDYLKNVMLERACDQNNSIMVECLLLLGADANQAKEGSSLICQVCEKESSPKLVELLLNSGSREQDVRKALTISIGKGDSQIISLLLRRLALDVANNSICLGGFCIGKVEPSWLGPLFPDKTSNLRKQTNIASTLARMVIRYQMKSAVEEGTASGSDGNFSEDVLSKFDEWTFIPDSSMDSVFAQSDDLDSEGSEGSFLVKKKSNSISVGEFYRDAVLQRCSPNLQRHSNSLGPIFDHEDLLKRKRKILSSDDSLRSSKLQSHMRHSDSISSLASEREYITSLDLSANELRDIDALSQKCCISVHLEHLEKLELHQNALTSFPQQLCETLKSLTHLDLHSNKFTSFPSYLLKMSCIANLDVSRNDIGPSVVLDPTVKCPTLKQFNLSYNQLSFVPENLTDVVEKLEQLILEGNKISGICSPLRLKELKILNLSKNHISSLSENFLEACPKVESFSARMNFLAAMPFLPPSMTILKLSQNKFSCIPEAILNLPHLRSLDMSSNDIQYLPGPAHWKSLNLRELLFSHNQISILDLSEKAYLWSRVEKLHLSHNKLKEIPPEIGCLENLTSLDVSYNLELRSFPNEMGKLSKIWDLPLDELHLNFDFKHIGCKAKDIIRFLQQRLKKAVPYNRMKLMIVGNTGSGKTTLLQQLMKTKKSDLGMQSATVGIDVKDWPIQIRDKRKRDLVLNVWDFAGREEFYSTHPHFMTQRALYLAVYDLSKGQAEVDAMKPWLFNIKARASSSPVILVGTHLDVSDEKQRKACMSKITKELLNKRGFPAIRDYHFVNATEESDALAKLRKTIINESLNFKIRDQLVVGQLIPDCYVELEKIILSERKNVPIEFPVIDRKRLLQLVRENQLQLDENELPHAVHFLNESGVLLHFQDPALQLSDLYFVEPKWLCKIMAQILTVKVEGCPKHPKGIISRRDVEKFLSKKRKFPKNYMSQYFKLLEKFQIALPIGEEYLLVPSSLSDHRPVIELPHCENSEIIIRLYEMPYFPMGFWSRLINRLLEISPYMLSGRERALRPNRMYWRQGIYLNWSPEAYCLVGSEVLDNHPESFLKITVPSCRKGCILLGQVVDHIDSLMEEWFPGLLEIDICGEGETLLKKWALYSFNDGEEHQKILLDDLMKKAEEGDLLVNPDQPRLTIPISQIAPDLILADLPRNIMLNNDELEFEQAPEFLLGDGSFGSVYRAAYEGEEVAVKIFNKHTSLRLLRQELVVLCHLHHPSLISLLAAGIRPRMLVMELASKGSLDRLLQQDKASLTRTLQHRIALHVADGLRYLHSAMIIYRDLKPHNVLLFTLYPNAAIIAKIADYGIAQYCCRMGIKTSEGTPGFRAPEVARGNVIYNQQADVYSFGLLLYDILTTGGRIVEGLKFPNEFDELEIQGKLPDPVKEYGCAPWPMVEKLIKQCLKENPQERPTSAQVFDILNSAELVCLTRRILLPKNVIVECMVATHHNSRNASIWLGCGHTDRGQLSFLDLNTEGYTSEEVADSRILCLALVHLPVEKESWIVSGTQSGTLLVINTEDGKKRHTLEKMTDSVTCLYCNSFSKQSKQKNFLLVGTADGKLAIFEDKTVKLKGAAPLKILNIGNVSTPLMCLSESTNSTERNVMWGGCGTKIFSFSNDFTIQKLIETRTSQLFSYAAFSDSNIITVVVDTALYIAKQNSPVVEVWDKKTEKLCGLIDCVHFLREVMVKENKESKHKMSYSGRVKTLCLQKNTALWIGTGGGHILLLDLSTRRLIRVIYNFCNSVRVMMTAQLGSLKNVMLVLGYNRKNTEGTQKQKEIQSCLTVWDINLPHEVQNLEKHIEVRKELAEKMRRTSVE
Source text: b. Recombinant Cellular LRRK2 AlphaScreen Assay
To determine the activity of compounds against LRRK2 kinase activity in cells, the observed LRRK2 kinase-dependent modulation of LRRK2 Ser 935 phosphorylation (Dzamko et al., 2010, Biochem. J. 430: 405-413) was utilized to develop a quantitative 384 well plate-based immunoassay of LRRK2 Ser935 phosphorylation in the human neuroblastoma cell line SH-SY5Y, engineered to over-express recombinant full length LRRK2 protein. A BacMam virus expressing full length recombinant LRRK2 was purchased from Invitrogen and amplified by inoculation of SF-9 cells at MOI 0.3 for 4-5 days in Sf-900 III SFM medium supplemented with 3% fetal bovine serum. Infected cell cultures were then centrifuged at 2000 g for 20 minutes, viral supernatant titer determined by anti-gp64 plaque assay and stored at 4° C. Affinity-purified anti-phospho LRRK2 Ser935 sheep polyclonal antibody (Dzamko et al., 2010, Biochem. J. 430: 405-413) was biotinylated by standard methods (PerkinElmer). Anti-LRRK2 rabbit polyclonal antibody was purchased from Novus Biologicals. AlphaScreen Protein A IgG Kit (including acceptor and donor beads) was purchased from Perkin Elmer. SH-SY5Y cells were grown in DMEM/F12 medium with 10% dialysed fetal bovine serum and harvested by treatment with 0.5% trypsin-EDTA for 5 minutes at 37° C. followed by centrifugation at 1000 rpm for 4 minutes. The cell pellet was resuspended in Opti-MEM reduced serum media (Invitrogen) at 200,000 cells/ml and mixed with the BacMam LRRK2 virus at MOI=50. 50 μl cell solutions were then dispensed to each well of a 384-well plate and incubated at 37° C., 5% CO2 for 24 hours. Serial dilutions of test compounds were prepared in Opti-MEM reduced serum media (Invitrogen) and 5.6 ul transferred from compound plate to cell assay plate to achieve a top final assay concentration of 10 uM. DMSO was used in certain wells as controls. Cells were incubated at 37° C., 5% CO2 for 60 minutes. The medium was then removed and cells lysed by addition of 20 ul cell lysis buffer (Cell Signaling Technology) and incubation at 4° C. for 20 minutes. 10 ul of antibody/acceptor bead mix [(1/1000 biotinylated-pS935 LRRK2 antibody, 1/1000 total-LRRK2 antibody, 1/100 Acceptor beads in AlphaScreen detection buffer (25 mM Hepes (pH 7.4), 0.5% Triton X-100, 1 mg/ml Dextran 500 and 0.1% BSA)] was then added to each well and plates incubated for 2 hours at ambient temperature in the dark. 10 μl of donor beads solution (1/33.3 donor beads in AlphaScreen detection buffer) was then added to each well. Following incubation for a further 2 hours at ambient temperature in the dark, plates were read on an EnVision™ plate reader at emission 520-620 nm with excitation 680 nm. Dose response curve data was based on sigmoidal dose-response model.

IC50 | SMILES
≤ 10 nM | COc1nc(N2CCO[C@H](CO)C2)cc(-n2ncc3cc(C)c(C4CCN(C5CCOC5)CC4F)cc32)n1 (single isomer, unassigned) [Example E122]
≤ 100 nM | Cc1nc(N2CC(C)OC(CO)C2)cc(-n2ncc3cc(C)c(C4CCN(C5CCOC5)CC4)cc32)n1 (single isomer, unassigned) [Example E60, (6-Methyl-4-(2-methyl-6-(5-methyl-6-(1-(tetrahydrofuran-3-yl)piperidin-4-yl)-1H-indazol-1-yl)pyrimidin-4-yl)morpholin-2-yl)methanol]
≤ 100 nM | COc1nc(N2CC(C(C)O)C2)cc(-n2ncc3cc(C)c(C4CCN(C5CCOC5)CC4)cc32)n1 (single isomer, unassigned) [Example E97, 1-(1-(2-methoxy-6-(5-methyl-6-(1-(tetrahydrofuran-3-yl)piperidin-4-yl)-1H-indazol-1-yl)pyrimidin-4-yl)azetidin-3-yl)ethanol]
≤ 100 nM | COc1nc(N2CC[C@H](O)C2)cc(-n2ncc3cc(C)c(C4CCN(C5CCOC5)CC4)cc32)n1 (single isomer, unassigned) [Example E17]
≤ 10 nM | COc1nc(N2CCO[C@H](CO)C2)cc(-n2ncc3cc(C)c(C4CCN(C5CCOC5)CC4F)cc32)n1 (single isomer, unassigned) [Example E121]
≤ 10 nM and 5.01 nM | COc1nc(N2CC(O)C2)cc(-n2ncc3cc(C)c(C4CCN(C5CCOC5)CC4F)cc32)n1 (single isomer, unassigned) [Example E5, cis-1-(6-(6-(3-Fluoro-1-(tetrahydrofuran-3-yl)piperidin-4-yl)-5-methyl-1H-indazol-1-yl)-2-methoxypyrimidin-4-yl)azetidin-3-ol]
≤ 100 nM | COc1nc(N2CC(C)(O)C2)cc(-n2ncc3cc(C)c(C4CCN(C5CCOC5)CC4)cc32)n1 (single isomer, unassigned) [Example E11, 1-(2-Methoxy-6-(5-methyl-6-(1-(tetrahydrofuran-3-yl)piperidin-4-yl)-1H-indazol-1-yl)pyrimidin-4-yl)-3-methylazetidin-3-ol]
≤ 100 nM | COc1nc(N2CC(C(C)O)C2)cc(-n2ncc3cc(C)c(C4CCN(C5CCOC5)CC4)cc32)n1 (single isomer, unassigned) [Example E98, 1-(1-(2-methoxy-6-(5-methyl-6-(1-(tetrahydrofuran-3-yl)piperidin-4-yl)-1H-indazol-1-yl)pyrimidin-4-yl)azetidin-3-yl)ethanol]
≤ 100 nM | COc1nc(N2CCOC(C(C)O)C2)cc(-n2ncc3cc(C)c(C4CCN(C5CCOC5)CC4)cc32)n1 (single isomer, unassigned) [Example E21, 1-(4-(2-Methoxy-6-(5-methyl-6-(1-(tetrahydrofuran-3-yl)piperidin-4-yl)-1H-indazol-1-yl)pyrimidin-4-yl)morpholin-2-yl)ethanol]
≤ 100 nM | COc1nc(N2CC[C@@H](O)C2)cc(-n2ncc3cc(C)c(C4CCN(C5CCOC5)CC4)cc32)n1 (single isomer, unassigned) [Example E19]
≤ 10 nM | COc1nc(N2CCNC(=O)C2)cc(-n2ncc3cc(C)c(C4CCN(C5CCOC5)CC4F)cc32)n1 (single isomer, unassigned) [Example E53, 4-(6-(6-(3-Fluoro-1-(tetrahydrofuran-3-yl)piperidin-4-yl)-5-methyl-1H-indazo-1-yl)-2-methoxypyrimidin-4-yl)piperazin-2-one]
≤ 10 nM | COc1nc(N2CCO[C@H](CO)C2)cc(-n2ncc3cc(C)c(C4CCN(C5CCOC5)CC4F)cc32)n1 (single isomer, unassigned) [Example E123]
≤ 100 nM | Cc1nc(N2CC(CC(C)O)C2)cc(-n2ncc3cc(Cl)c(C4CCN(C5CCOC5)CC4)cc32)n1 (single isomer, unassigned) [Example E44, 1-(1-(6-(5-Chloro-6-(1-(tetrahydrofuran-3-yl)piperidin-4-yl)-1H-indazol-1-yl)-2-methylpyr-imidin-4-yl)azetidin-3-yl)propan-2-ol]
≤ 1000 nM | COc1nc(N2CC(C(C)O)C2)cc(-n2ncc3cc(C)c(C4CCN(C5CCOC5)CC4)cc32)n1 (single isomer, unassigned) [Example E100, 1-(1-(2-methoxy-6-(5-methyl-6-(1-(tetrahydrofuran-3-yl)piperidin-4-yl)-1H-indazol-1-yl)pyrimidin-4-yl)azetidin-3-yl)ethanol]

The next lines start with the molecule.

SMILES | IC50
Cc1nc(N[C@H]2CCOC2)cc(-n2ncc3cc(C)c(C4CCN(C5CCOC5)CC4)cc32)n1 (stereo partly drawn) [Example E144, 2-methyl-6-(5-methyl-6-(1-(tetrahydrofuran-3-yl)piperidin-4-yl)-1H-indazol-1-yl)-N—((S)-tetrahydrofuran-3-yl)pyrimidin-4-amine] | ≤ 1000 nM
Cc1nc(N2CCO[C@H](CO)C2)cc(-n2ncc3cc(C)c(C4CCN(C5CCOC5)CC4F)cc32)n1 (single isomer, unassigned) [Example E105] | ≤ 100 nM
Cc1nc(N2CCO[C@H](CO)C2)cc(-n2ncc3cc(C)c(C4CCN(C5CCOC5)CC4F)cc32)n1 (single isomer, unassigned) [Example E104] | ≤ 100 nM
[2H]C1(N2CCC(c3cc4c(cnn4-c4cc(N5CCO[C@@H](CO)C5)nc(C)n4)cc3C)CC2)CCOC1 (single isomer, unassigned) [Example E36] | 158 nM
Cc1nc(N2CCO[C@@H](CO)C2)cc(-n2ncc3cc(C)c(C4CCN(C5CCOC5)CC4F)cc32)n1 (single isomer, unassigned) [Example E101] | ≤ 100 nM
[2H]C1([2H])CC(c2cc3c(cnn3-c3cc(N4CCO[C@@H](CO)C4)nc(C)n3)cc2C)CC([2H])([2H])N1[C@H]1CCOC1 [Example E96, ((R)-4-(2-methyl-6-(5-methyl-6-(1-((S)-tetrahydrofuran-3-yl)piperidin-4-yl-2,2,6,6-d4)-1H-indazol-1-yl)pyrimidin-4-yl)morpholin-2-yl)methanol] | ≤ 100 nM and 100 nM
Cc1nc(N2CCO[C@H](CO)C2)cc(-n2ncc3cc(C)c(C4CCN(C5CCOC5)CC4F)cc32)n1 (single isomer, unassigned) [Example E103] | ≤ 100 nM
Cc1nc(N[C@@H]2CCOC2)cc(-n2ncc3cc(C)c(C4CCN(C5CCOC5)CC4)cc32)n1 (stereo partly drawn) [Example E143, 2-methyl-6-(5-methyl-6-(1-(tetrahydrofuran-3-yl)piperidin-4-yl)-1H-indazol-1-yl)-N—((R)-tetrahydrofuran-3-yl)pyrimidin-4-amine] | ≤ 1000 nM
Cc1nc(N2CCO[C@@H](CO)C2)cc(-n2ncc3cc(Cl)c(C4CCN(C5CCOC5)CC4)cc32)n1 (single isomer, unassigned) [Example E129] | ≤ 1000 nM
Cc1nc(N[C@H]2C[C@H](O)C2)cc(-n2ncc3cc(C)c(C4CCN(C5CCOC5)CC4)cc32)n1 (single isomer, unassigned) [Example E132, trans-3-((2-methyl-6-(5-methyl-6-(1-(tetrahydrofuran-3-yl)piperidin-4-yl)-1H-indaz-ol-1-yl)pyrimidin-4-yl)amino)cyclobutanol] | ≤ 1000 nM
Cc1nc(OC2CC(O)C2)cc(-n2ncc3cc(C)c(C4CCN(C5CCOC5)CC4)cc32)n1 (single isomer, unassigned) [Example E145, 3-((2-methyl-6-(5-methyl-6-(1-(tetrahydrofuran-3-yl)piperidin-4-yl)-1H-indazol-1-yl)pyrimidin-4-yl)oxy)cyclobutanol] | ≤ 1000 nM
